{
  "source": "patent US20090130070A1",
  "about": "“METHOD OF TREATMENT” (The University of Queensland, priority 2004, published 2009)",
  "key": {"[1]": {"test_system": "Human epidermal keratinocytes (HaCaT cells)", "test": "\"scrape\" in vitro wound healing model (wound closure of a scraped confluent monolayer)", "assay_type": "cell-based", "details": "for wound width, day 1: day 1 (24 hours); for wound width, day 2: day 2 (48 hours); for ability to enhance keratinocyte wound closure compared with thyroglobulin and TGF-β1 inhibitor: at all concentrations of agents", "experimental": "The “scrape” in vitro wound healing model has been previously presented in the literature (Li, F. et al., 2000, Exp Cell Res., 258(2): 245-253; Firth J. D. et al., 2004, J. Invest. Dermatol., 122(1): 222-231). In this model a scrape across a confluent monolayer of cells is used to simulate a wound and the effect of agents added to serum free media is tested on the rate of closure of the gap.\nHuman epidermal keratinocytes (HaCaT cells) were plated at a density of 1×10^5 cells/well into Nunc 6 well plates in Dulbecco's Modified Eagle Medium (DMEM) containing 10% fetal bovine serum (FBS) benzyl penicillin (100 IU/ml), streptomycin […] confluence (2 days) monolayers were “wounded” with a 1 ml pipette tip (0.5 mm width) by scraping the tip across the centre of the well. The wells were then washed 5 times with DMEM. One ml of either DMEM with 10% FBS, DMEM or DMEM with: 3, 6, 12 or 24 mgs/ml bovine fetuin A (Sigma), 6.25, 12.5, 25 or 50 μg/ml peptide TGF peptide antagonist (Corresponding to residues 41-65 of TGFβ-1-3:—Huang S. S. et al., 1997, Journal of Biological Chemistry, 272(43):27155-27159) and 2.1, 4.2, 8.4 and 16.8 mg/ml bovine thyroglobulin was added to each well (2 replicates per plate, 4 plates). These concentrations were calculated to have equivalent antagonistic effect on the binding of TGFβ-1 to its receptor for each of the compounds. All DMEM solutions used contained benzyl penicillin (100 IU/ml), streptomycin ([…]) and fungizone (250 mg/ml). A mark was placed on the base of each well at right angles to the “wound” and the wound was photographed at the intersection of the mark and wound with a Nikon EOS 300 digital camera fitted to a JenaMed (Ziess Jena) inverted microscope (50×). Images were taken at the same positions 24 and 48 hours after addition of the treatment media. Digital images were analysed with Image Pro (Media Cybernetics) image analysis software and an image of a Nikon stage micrometer was used for calibration of length measurements. Results were summarized as the wound width after 24 and 48 hours."}, "[2]": {"test": "Penetration of fluorescently labeled fetuin into lamb burn wounds from different carriers", "assay_type": "in vivo, Merino lambs", "details": "2 mg/mL, lamb scald wounds, 24 hours", "experimental": "Lyophilized bovine Fetuin (Sigma) was dissolved in purified water at a concentration of 10 mg/mL. Aliquots of 200 μL were labeled using a FluoReporter Oregon Green® 488 Protein Labeling Kit (Molecular Probes). Assuming 85% recovery from the kit, the solution was dried down using a vacuum concentrator (Labconco) and added at 2 mg/mL to one of 3 different carriers: paraffin cream, aqueous cream (Orion, Australia) or dissolved in purified water to make an aqueous solution.\nTwo Merino lambs were scalded under general anesthesia as described previously. Eight wounds were created on each animal; 2× control wounds with nothing added, 2× aqueous solution treated wounds, 2× aqueous cream treated wounds and 2× paraffin cream treated wounds. The wounds were dressed with Melolin and Sleek and the lambs awoken and returned to the pens. 24 hours later the lambs were euthanized and the burn wounds (as well as an unburned area) were collected and fixed in formalin for paraffin embedding. Sections of (4 μm) were taken and examined under a Nikon EP epifluorescent microscope to determine the extent of fetuin penetration in each of the carriers. Brightfield transmittance and Fluorescent green images were captured with a Spot RT slider cooled CCD camera and overlayed with using Photoshop software."}, "TGF-β1": {"target": "TGF-β1 (Homo sapiens, UniProt P01137)", "sequence (P01137 279-390 limits assumed, species assumed)": "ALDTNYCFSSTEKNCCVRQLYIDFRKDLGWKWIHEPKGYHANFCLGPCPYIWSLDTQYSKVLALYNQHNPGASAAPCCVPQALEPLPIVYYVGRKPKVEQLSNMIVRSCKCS", "details": "cited from earlier work"}, "TGF-β2": {"target": "T1, TGF-β2 (Homo sapiens, UniProt P61812)", "T1 sequence (P61812 303-414 limits assumed)": "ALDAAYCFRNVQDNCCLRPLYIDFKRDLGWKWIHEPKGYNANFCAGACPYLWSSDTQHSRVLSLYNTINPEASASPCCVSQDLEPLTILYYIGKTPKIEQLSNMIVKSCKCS", "details": "cited from earlier work"}, "TGF-β3": {"target": "T2, TGF-β3 (Homo sapiens, UniProt P10600)", "T2 sequence (P10600 301-412 limits assumed)": "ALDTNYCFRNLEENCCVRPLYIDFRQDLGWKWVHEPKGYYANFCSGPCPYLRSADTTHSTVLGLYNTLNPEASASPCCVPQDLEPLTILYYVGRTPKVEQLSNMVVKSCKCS", "details": "cited from earlier work"}, "BMP-2": {"target": "T3, BMP-2 (Homo sapiens, UniProt P12643)", "T3 sequence (P12643 283-396)": "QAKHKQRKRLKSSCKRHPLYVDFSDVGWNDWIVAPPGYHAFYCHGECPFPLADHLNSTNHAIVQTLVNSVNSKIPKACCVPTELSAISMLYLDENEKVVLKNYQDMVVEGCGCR", "details": "cited from earlier work"}, "BMP-4": {"target": "T4, BMP-4 (Homo sapiens, UniProt P12644)", "T4 sequence (P12644 293-408)": "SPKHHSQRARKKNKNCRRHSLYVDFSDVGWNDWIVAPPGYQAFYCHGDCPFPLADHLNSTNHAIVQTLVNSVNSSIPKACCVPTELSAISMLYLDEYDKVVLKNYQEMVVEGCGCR", "details": "cited from earlier work"}, "BMP-6": {"target": "T5, BMP-6 (Homo sapiens, UniProt P22004)", "T5 sequence (P22004 375-513)": "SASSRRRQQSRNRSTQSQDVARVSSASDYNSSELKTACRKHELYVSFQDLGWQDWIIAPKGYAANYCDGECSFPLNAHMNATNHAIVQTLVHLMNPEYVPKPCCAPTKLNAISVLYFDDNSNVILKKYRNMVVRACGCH", "details": "cited from earlier work"}, "[3]": {"details": "3 mgs/ml bovine fetuin A in DMEM"}, "[4]": {"details": "6 mgs/ml bovine fetuin A in DMEM"}, "[5]": {"details": "12 mgs/ml bovine fetuin A in DMEM"}, "[6]": {"details": "24 mgs/ml bovine fetuin A in DMEM"}},
  "note": "Entries after “also recorded” stand apart in the source; their conditions may differ.",
  "data": [
    {"substance": "Fetuin: bovine fetuin A (Sigma); glycoprotein also called alpha2-Heremans-Schmid-glycoprotein (AHSG)", "values": [
      {"measurement": "wound width, day 0", "setting": "[1]; [3]", "result": 0.7602},
      {"measurement": "wound width, day 1", "setting": "[1]; [3]", "result": 0.4265},
      {"measurement": "wound width, day 2", "setting": "[1]; [3]", "result": 0.02947},
      {"measurement": "wound width, day 0", "setting": "[1]; [4]", "result": 0.7332},
      {"measurement": "wound width, day 1", "setting": "[1]; [4]", "result": 0.3938},
      {"measurement": "wound width, day 2", "setting": "[1]; [4]", "result": 0.01441},
      {"measurement": "wound width, day 0", "setting": "[1]; [5]", "result": 0.7231},
      {"measurement": "wound width, day 1", "setting": "[1]; [5]", "result": 0.3699},
      {"measurement": "wound width, day 2", "setting": "[1]; [5]", "result": 0.000259},
      {"measurement": "wound width, day 0", "setting": "[1]; [6]", "result": 0.6724},
      {"measurement": "wound width, day 1", "setting": "[1]; [6]", "result": 0.3806},
      {"measurement": "wound width, day 2", "setting": "[1]; [6]", "result": 0.04348},
      {"measurement": "ability to enhance keratinocyte wound closure compared with thyroglobulin and TGF-β1 inhibitor", "setting": "[1]; listed as fetuin", "result": "markedly more effective than either thyroglobulin or a TGF-β1 inhibitor"},
      {"measurement": "ability to enhance keratinocyte wound closure compared with thyroglobulin and TGF-β1 inhibitor", "setting": "[1]; listed as fetuin A", "result": "significantly greater ability than thyroglobulin and TGFβ1 to enhance keratinocyte wound closure"},
      {"measurement": "penetration of labeled fetuin into burn tissue", "setting": "[2]; aqueous solution", "result": "good penetration; also recorded: on the epidermis and at the end of hair follicles"},
      {"measurement": "penetration of labeled fetuin into burn tissue", "setting": "[2]; oil based paraffin cream", "result": "little or no penetration"},
      {"measurement": "penetration of labeled fetuin into burn tissue", "setting": "[2]; water based (aqueous) cream", "result": "good penetration; also recorded: penetration to the base of the hair follicles"},
      {"measurement": "binding to TGF-β1", "setting": "TGF-β1", "result": "strongly"},
      {"measurement": "binding to TGF-β2", "setting": "TGF-β2", "result": "strongly"},
      {"measurement": "binding to TGF-β3", "setting": "TGF-β3", "result": "weakly"},
      {"measurement": "binding to BMP-2", "setting": "BMP-2", "result": "strongly"},
      {"measurement": "binding to BMP-4", "setting": "BMP-4", "result": "strongly"},
      {"measurement": "binding to BMP-6", "setting": "BMP-6", "result": "strongly"}
    ]}
  ]
}
